From patent US20220079956A1, “MAINTENANCE OF AGING MUSCLE TISSUE” (BIOPHYTIS SA, priority 2011, published 2022)
Where “and” joins values, the source holds several entries; their conditions need not be identical. Equal entries are not always repeated. Where two headings read alike, the source gives them in different places.

Key:
[1] = tested on: mice subjected to a high-fat diet; assay: Mice subjected to a high-fat diet for 3 weeks: carcass weight, quadriceps composition, energy balance; format: in vivo, male C57BL/6J mice; details: high-fat diet 3 weeks
Procedure: (§1) The effect of phytoecdysones is observed on mice subjected to a high-fat diet during 3 weeks.
(§2) The HF high-fat diet involved the intake of large amounts of fat in the form of lard. The mice selected for the study were male C57BL/6J mice, 6 weeks old at the start of the experiment.
Mice not subjected to a high fat diet, forming a normal diet control group, were tested in parallel.
(§3) The mice in the study were grouped according to the dietary regimes and treatments to which they were subjected: normal or control diet (LF), high-fat diet (HF), high-fat diet supplemented with quinoa extract (HFQ) and high-fat diet supplemented with pure 20-hydroxyecdysone (HF20E).
(§4) The mice were subjected to the dietary regimes detailed in Table 1 below for three weeks and the mice fed a high-fat diet were treated in parallel with pure 20E or extract A (2% 20E). The concentration of 20E was adjusted to equal 40 mg per kg of food.
In light of the average food intake of the mice, the dose of 20E administered corresponded in the two treatments to 5 mg of 20E per kg of body weight per day. The food was supplied in excess every day for both dietary regimes and all three treatments. On average, 40 g of food was provided per cage per day or 6.5 g of food per mouse per day.
Table 1 below sets out in greater detail the composition of the diets to which mice were subjected:
Following sacrifice, aliquots of muscle (quadriceps) were collected for analysis. FIG. 2 illustrates a graph plotting muscle triglyceride content against diet and associated treatment.

[2] = tested on: UCP2 gene transcripts; assay: Quantity of UCP2 gene transcripts (mRNA) in muscle of high-fat diet mice; format: in vivo, male C57BL/6J mice; details: high-fat diet 3 weeks, 5 mg of 20E per kg body weight per day; vs high-fat diet alone
Excerpt: as §1, §2, §3, §4
(§5) In light of the average food intake of the mice, the dose of 20E administered corresponded in the two treatments to 5 mg of 20E per kg of body weight per day. The food was supplied in excess every day for both dietary regimes and all three treatments. […]
(§6) FIG. 4 illustrates a graph plotting quantities of gene transcripts (mRNA), as measured in the muscle, against diet and associated treatment. The quantities have been normalized with respect to the quantities measured in the muscles of mice fed the control diet.

[3] = tested on: UCP3 gene transcripts; assay: Quantity of UCP3 gene transcripts (mRNA) in muscle of high-fat diet mice; format: in vivo, male C57BL/6J mice; details: high-fat diet 3 weeks, 5 mg of 20E per kg body weight per day; vs high-fat diet alone
Excerpt: as §1, §2, §3, §4, §5, §6

[4] = tested on: CPT-1 intracellular fatty acid transporter gene transcripts; assay: Quantity of CPT-1 gene transcripts (mRNA) in muscle of high-fat diet mice; format: in vivo, male C57BL/6J mice; details: high-fat diet 3 weeks, 5 mg of 20E per kg body weight per day
Excerpt: as §1, §2, §3, §4, §5, §6

[5] = tested on: C2C12 myoblast; assay: C2C12 myoblast differentiation (fusion index, number of nuclei per myotube); format: cell-based, mouse; details: for EC50: C2C12 myoblasts, 6-day differentiation in the presence of the drug, read-out: EC50 for number of nuclei per myotube increase
Procedure: FIGS. 10A-B are graphs of BIO101 efficacy 50% value (EC50) determination on myoblasts differentiation. The fusion index and number of nuclei per myotubes were measured after 6-day differentiation in the presence of the drug.
The fusion index and the number of nuclei per myotube are recognized parameters of myoblast differentiation. The fusion index was calculated as the ratio of nuclei in fused MHC-positive cells 2 nuclei per cells) to the total nuclei number. […] EC50 values (efficacious doses 50%) for each parameter were calculated by the integration of effect vs [BIO101] curves.

[6] = tested on: C2C12 cells; assay: Protein synthesis in differentiated C2C12 myotubes by [3H]-leucine incorporation; format: cell-based, mouse; details: 0.1 μM, vs untreated control
Excerpt: FIGS. 11A-B are graph of effects of 20-hydroxyecdysone (20E) on protein synthesis and myostatin gene expression in C2C12 cells. […] Results are shown as means±SEM, ***p<0.001, **p<0.01, *p<0.05 vs untreated control (Kruskal-Wallis followed by a Dunn's test).

[7] = tested on: myostatin gene expression; assay: Myostatin gene expression in C2C12 myotubes by qRT-PCR; format: cell-based, mouse; details: 6 hours, vs untreated control
Procedure: In FIG. 11B, C2C12 mouse myoblasts were differentiated for 6 days into myotubes. They were then treated for 6 hours with concentrations of 20E ranging from 0.001 to 10 μM. Myostatin gene expression was detected by qRT-PCR. Results are shown as means±SEM with ***p<0.001, **p<0.01, *p<0.05 vs untreated control (one-way ANOVA with Dunnett's test compared to untreated control).

[8] = Single ascending dose study, clinical Phase 1: plasma levels; format: in vivo; details: human; for Cmax: plasma, SAD, read-out: Maximal plasma concentration (Cmax)
Procedure: A single ascending BIO101 dose study during clinical Phase 1 trial is performed. […] This low concentration is clearly below optimal conditions (with only 26 and 32% of efficacy for two selected markers of differentiation, see FIGS. 10A-B) and is not responsible for significant efficacy in terms of anabolism (FIGS. 11A-B).
FIG. 12A-B are graphs of plasma levels of BIO101 in human following 100, 350 and 700 mg administration.

[9] = tested on: sarcopenic patients; assay: Clinical trial in sarcopenic patients: gait speed in 400 meters walking test; format: in vivo, human; details: 6 months; for improvement in gait speed in 400 meters walking test compared to placebo: 700 mg daily
Excerpt: After 6 months of treatment, an improvement of 0.09 m/s in the full analyze set (FAS) population and 0.10 m/s in the per protocol (PP) population (treatment effect significant, p<0.01) were observed. This effect of Sarconeos (BIO101) corresponds to the minimal clinically important difference (MCID) in sarcopenia (0.1 m/s), associated with a reduction in mobility and disability in elderly (Perera et al. 2006).

[10] = Multiple ascending dose study, clinical Phase 1: adverse events; format: in vivo; details: human, daily administrations of 900 mg, MAD
Procedure: A multiple ascending BIO101 dose study was performed during clinical Phase 1 trial. […] For this reason, in clinical Phase 2, the daily dose of 900 mg was not tested.

CC(C)(O)CC[C@@H](O)[C@](C)(O)[C@H]1CC[C@@]2(O)C3=CC(=O)[C@@H]4C[C@@H](O)[C@@H](O)C[C@]4(C)[C@H]3CC[C@]12C [20E, 20-hydroxyecdysone]
energy expenditure higher than high-fat diet alone ([1]; 5 mg of 20E per kg body weight per day): 9%
food intake (energy, kcal) ([1]; 5 mg of 20E per kg body weight per day, compared with animals fed the standard diet): same amount of energy
higher muscle protein content (quadriceps) ([1]; 5 mg of 20E per kg body weight per day, trend, compared to HF treatment alone): 5%
lower muscle triglyceride content (quadriceps) ([1]; 5 mg of 20E per kg body weight per day, trend, vs high-fat diet alone): 26%
lean body mass (carcass defatted) / carcass weight ([1]; 5 mg of 20E per kg of body weight per day in food, vs high-fat diet alone): increase that has allowed the mice to return virtually to the same level as the normal diet
quantity of UCP2 gene transcripts in muscle [2]: tendency to increased quantities
quantity of UCP3 gene transcripts in muscle [3]: increase
quantity of CPT-1 gene transcripts in muscle [4]: tends to restore transcript levels to those seen for the control diet

CC(C)(O)CC[C@@H](O)[C@](C)(O)[C@H]1CC[C@@]2(O)C3=CC(=O)[C@@H]4C[C@@H](O)[C@@H](O)C[C@]4(C)[C@H]3CC[C@]12C [BIO101]
EC50 [5]: 550 nM
EC50 ([5]; Mus musculus, C2C12, 144 h): 556 nM
% of efficacy on differentiation marker (first marker, fusion index) ([5]; at 0.26 μM, the plasma peak of a 100 mg dose, read from FIG. 10A): 26%
% of efficacy on differentiation marker (second marker, number of nuclei per myotube) ([5]; at 0.26 μM, the plasma peak of a 100 mg dose, read from FIG. 10B): 32%
effect on protein synthesis [6]: not yet significant
inhibition of myostatin gene expression ([7]; 0.1 μM): not yet significant
inhibition of myostatin gene expression ([7]; concentration equal or higher than 0.5 μM): significant
plasma exposure (maximal concentration from plot vs administered dose) ([8]; 175 mg administration (5 mg/kg for a 35 kg patient), read from FIG. 12B): 0.4 µM
Cmax ([8]; 100 mg dose): 260 nM and 126 ng/mL
Cmax ([8]; 350 mg dose): 630 nM and 304 ng/mL
Cmax ([8]; 700 mg dose): 780 nM and 374 ng/mL
gait speed in 400 meters walking test compared to placebo ([9]; 350 mg daily, notably in a frail sub population of the FAS): improvement
improvement in gait speed in 400 meters walking test compared to placebo ([9]; full analyze set (FAS) population): 0.09 m/s
improvement in gait speed in 400 meters walking test compared to placebo ([9]; per protocol (PP) population, p<0.01): 0.10 m/s
treatment-related TEAEs (treatment-emergent adverse events) [10]: high number of subjects with treatment-related TEAEs
